Measured values reported in patent US10208040B2, “Fused imidazo-piperidine JAK inhibitors” (THERAVANCE BIOPHARMA R&D IP, LLC, priority 2017, dated 2019).

Assays:
[1] = test system: alternaria-induced BALF eosinophils; experiment: Murine model of Alternaria alternata-induced eosinophilic inflammation of the lung; format: in vivo; conditions: mouse, oropharyngeal aspiration, 48 h after alternaria challenge, maximum statistically significant percent inhibition
Protocol: Airway eosinophilia is a hallmark of human asthma. Alternaria alternata is a fungal aeroallergen that can exacerbate asthma in humans and induces eosinophilic inflammation in the lungs of mice (Havaux et al. Clin Exp Immunol. 2005 February; 139(2):179-88).
Seven- to nine-week old male C57 mice from Taconic were used in the study. On the day of study, animals were lightly anesthetized with isoflurane and administered either vehicle or test compound (0.03-1.0 mg/mL, 50 μL total volume over several breaths) via oropharyngeal aspiration. Animals were placed in lateral recumbency post dose and monitored for full recovery from anesthesia before being returned to their home cage. One hour later, animals were once again briefly anesthetized and challenged with either vehicle or alternaria extract (200 ug total extract delivered, 50 μL total volume) via oropharyngeal aspiration before being monitored for recovery from anesthesia and returned to their home cage. Forty-eight hours after alternaria administration, bronchoalveolar lavage fluid (BALF) was collected and eosinophils were counted in the BALF using the Advia 120 Hematology System (Siemens).
Activity in the model is evidenced by a decrease in the level of eosinophils present in the BALF of treated animals at forty-eight hours compared to the vehicle treated, alternaria challenged control animals. Data are expressed as percent inhibition of the vehicle treated, alternaria challenged BALF eosinophils response. To calculate percent inhibition, the number of BALF eosinophils for each condition is converted to percent of the average vehicle treated, alternaria challenged BALF eosinophils and subtracted from one-hundred percent.

[2] = test system: IL-13 induced pSTAT6 in lung tissue; experiment: Murine model of IL-13 induced pSTAT6 induction in lung tissue; format: in vivo; conditions: mouse lung, oral aspiration 1 mg/mL 50 μL, IL-13 challenge 4 h post dose, pSTAT6 at 5 hours
Protocol: IL-13 is an important cytokine underlying the pathophysiology of asthma (Kudlacz et al. Eur. J. Pharmacol, 2008, 582, 154-161). IL-13 binds to cell surface receptors activating members of the Janus family of kinases (JAK) which then phosphorylate STAT6 and subsequently activates further transcription pathways. In the described model, a dose of IL-13 was delivered locally into the lungs of mice to induce the phosphorylation of STAT6 (pSTAT6) which is then measured as the endpoint.
Adult balb/c mice from Harlan were used in the assay. On the day of study, animals were lightly anesthetized with isoflurane and administered either vehicle or test compound (1 mg/mL, 50 μL total volume over several breaths) via oral aspiration. Animals were placed in lateral recumbency post dose and monitored for full recovery from anesthesia before being returned to their home cage. Four hours later, animals were once again briefly anesthetized and challenged with either vehicle or IL-13 (0.03 μg total dose delivered, 50 μL total volume) via oral aspiration before being monitored for recovery from anesthesia and returned to their home cage. One hour after vehicle or IL-13 administration, lungs were collected for both pSTAT6 detection using an anti-pSTAT6 ELISA (rabbit mAb capture/coating antibody; mouse mAb detection/report antibody: anti-pSTAT6-pY641; secondary antibody: anti-mouse IgG-HRP) and analyzed for total drug concentration as described above in Assay 3.
Selected compounds of the invention were tested in the assay. Activity in the model is evidenced by a decrease in the level of pSTAT6 present in the lungs of treated animals at 5 hours compared to the vehicle treated, IL-13 challenged control animals. The difference between the control animals which were vehicle-treated, IL-13 challenged and the control animals which were vehicle-treated, vehicle challenged dictated the 0% and 100% inhibitory effect, respectively, in any given experiment.

[3] = test system: IL-6 stimulated STAT3 phosphorylation in CD3+ T cells; experiment: Inhibition of IL-6 stimulated pSTAT3 in CD3+ T cells; format: cell-based, human; conditions: for IC50: T-cell, CD3+ T cells in human PBMCs, read-out: pIC50 inhibition of IL-6 stimulated pSTAT3 (converted)
Text: A protocol analogous to that of Assay 9 was used to determine the potency of the test compound for inhibition of interleukin-6 (IL-6) stimulated STAT3 phosphorylation. An Alexa Fluor 647 conjugated anti-pSTAT3 antibody (pY705, Clone 4/P, BD Biosciences) was used to detect STAT3 phosphorylation.

[4] = test system: IL-13 induced STAT6 phosphorylation in BEAS-2B human lung epithelial cells; experiment: Cellular JAKI potency assay (AlphaScreen, BEAS-2B); format: cell-based; conditions: BEAS-2B cells
Protocol: The AlphaScreen JAKI cellular potency assay was carried out by measuring interleukin-13 (IL-13, R&D Systems) induced STAT6 phosphorylation in BEAS-2B human lung epithelial cells (ATCC). The anti-STAT6 antibody (Cell Signaling Technologies) was conjugated to AlphaScreen acceptor beads (Perkin Elmer), while the anti-pSTAT6 (pTyr641) antibody (Cell Signaling Technologies) was biotinylated using EZ-Link Sulfo-NHS-Biotin (Thermo Scientific).
BEAS-2B cells were grown at 37° C. in a 5% CO2 humidified incubator in 50% DMEM/50% F-12 medium (Life Technologies) supplemented with 10% FBS (Hyclone), 100 U/mL penicillin, 100 μg/mL streptomycin (Life Technologies), and 2 mM GlutaMAX (Life Technologies). On day 1 of the assay, cells were seeded at a 7,500 cells/well density in white poly-D-lysine-coated 384-well plates (Corning) with 25 μL medium, and were allowed to adhere overnight in the incubator. On day 2 of the assay, the medium was removed and replaced with 12 μL of assay buffer (Hank's Balanced Salt Solution/HBSS, 25 mM HEPES, and 1 mg/ml bovine serum albumin/BSA) containing dose-responses of test compounds. Compounds were serially diluted in DMSO and then diluted another 1000-fold in media to bring the final DMSO concentration to 0.1%. Cells were incubated with test compounds at 37° C. for 1 h, and followed by the addition of 12 μl of pre-warmed IL-13 (80 ng/mL in assay buffer) for stimulation. After incubating at 37° C. for 30 min, the assay buffer (containing compound and IL-13) was removed, and 10 μL of cell lysis buffer (25 mM HEPES, 0.1% SDS, 1% NP-40, 5 mM MgCl2, 1.3 mM EDTA, 1 mM EGTA, and supplement with Complete Ultra mini protease inhibitors and PhosSTOP from Roche Diagnostics). The plates were shaken at ambient temperature for 30 min before the addition of detection reagents. A mixture of biotin-anti-pSTAT6 and anti-STAT6 conjugated acceptor beads was added first and incubated at ambient temperature for 2 h, followed by the addition of streptavidin conjugated donor beads (Perkin Elmer). After a minimum of 2 h incubation, the assay plates were read on the EnVision plate reader. AlphaScreen luminescence signals were recorded and utilized to calculate the percent inhibition values based on DMSO and background controls.
For dose-response analysis, percent inhibition data were plotted vs. compound concentrations, and IC50 values were determined from a 4-parameter robust fit model with the Prism software. Results may also be expressed as the negative logarithm of the IC50 value, pIC50.
Test compounds having a lower IC50 value or higher pIC50 value in this assay show greater inhibition of IL-13 induced STAT6 phosphorylation.

SMILES	Percent Inhibition of Alternaria-induced BALF Eosinophils [1]	pSTAT6 inhibition Assay 4 [2]	inhibition of IL-6 signaling (in words) [3]	IC50 [3] [nM]	IC50 [4] [nM]
CCCN1Cc2[nH]c(-c3n[nH]c4cc(-c5cc(F)c(O)cc5CC)ccc34)nc2C[C@H]1C(=O)N1C[C@@H]2C[C@H]1CN2C [Example 1, ((S)-2-(6-(2-ethyl-5-fluoro-4-hydroxyphenyl)-1H-indazol-3-yl)-5-propyl-4,5,6,7-tetrahydro-3H-imidazo[4,5-c]pyridin-6-yl)((1S,4S)-5-methyl-2,5-diazabicyclo-[2.2.1]heptan-2-yl)methanone]	90	A (A represents between 60% and 80% inhibition)	inhibit IL-6 signaling	63.1	5
CCc1cc(O)c(F)cc1-c1ccc2c(-c3nc4c([nH]3)CN(CC)[C@@H](C(=O)N3CCN(C(C)(C)C)CC3)C4)n[nH]c2c1 [Example 1-37]		C (C represents between 25% and 40% inhibition)			5.9
CCc1cc(O)c(F)cc1-c1ccc2c(-c3nc4c([nH]3)CN(C(C)C)[C@H](C(=O)N3CC[C@H](N(C)C)C3)C4)n[nH]c2c1 [Example 3]	93	B (B represents between 40% and 60% inhibition)	inhibit IL-6 signaling	39.8	5.9
